{
  "source": "patent US20120148586A1",
  "about": "“GLUCAGON-LIKE PROTEIN-1 RECEPTOR (GLP-1R) AGONISTS FOR TREATING AUTOIMMUNE DISORDERS” (priority 2009, published 2012)",
  "key": {"[1]": {"test_system": "EAE in MOG (35-55) immunized C57BL/6 mice", "test": "EAE clinical score (morbidity) after MOG (35-55) immunization", "type": "in vivo", "protocol": "EAE was induced in female C57BL/6 mice by s.c. injection of 200 μg of the encephalitogenic peptide MOG (35-55) emulsified in CFA (Difco) and supplemented with 4 mg/ml of M. tuberculosis (Difco) on experiment day 0, followed immediately and again after 48 hours by 400 ng of pertussis toxin injected i.v.\n(§1) Animals were scored for morbidity as follows: 0=normal; 1=limp tail; 2=moderate hind limb weakness; 3=moderately severe hind limb weakness (animal can still walk with difficulty); 4=severe hind limb weakness (animal can move its hind limbs but cannot walk); 5=complete hind limb paralysis; and 6=death.\nAnother group of mice were treated on a weekly basis with 1mg/kg GAC-1 (n=10). The mice were assessed daily for clinical signs of EAE according to the following scale: 0=normal; 1=limp tail; 2=moderate hind-limb weakness; 3=moderately severe hind-limb weakness (animal can still walk); 4=severe hind-limb weakness (animal can move their hind-limbs but cannot walk); 5=complete hind limb paralysis; 6=death.\nIn a separate experiment, EAE was induced as described above. […] A second group of animals were treated with 3 mg/kg GAC-1 on day 0 after MOG immunization, followed by weekly treatments of 1 mg/kg GAC-1 starting on day 7 after immunization. A third group of animals were treated daily with PBS (control, n=10). Clinical scores were monitored daily following criteria described above.\nas §1, with “At day 5 after immunization, blood samples were taken for measurement of GLP1 levels. […] To monitor disease progression, animals” for “Animals”, “scored daily” for “scored”"}, "glucose and GLP-1 levels": {"test_system": "glucose and GLP-1 levels", "test": "oral glucose tolerance test", "type": "in vivo, mice", "details": "vs methylcellulose", "description": "GLP-1 is degraded in vivo by dipeptidyl peptidase-4 (DPP-4). DPP-4 inhibitors include, for example without limitation, sitagliptin, vildagliptin, saxagliptin, linagliptin, dutogliptin, gemigliptin, alogliptin and berberine. To test whether the DPP-4 inhibitor sitagliptin can prevent glucose level increases and elevated GLP-1 levels, four groups of 12 month old male C57BI/6 mice (n=4-5) were fasted overnight and subjected to an oral glucose tolerance test the following morning. One hour prior to oral glucose challenge, test animals were orally dosed with either 1 mg/kg or 10 mg/kg sitagliptin. […] After oral glucose challenge, glucose levels were test at 20, 40, 60 and 120 minutes. Blood samples were also taken at 20 minutes after glucose challenge to check glucose and GLP-1 levels."}, "GLP-1 levels": {"test_system": "GLP-1 levels", "test": "blood GLP1 levels in EAE mice at day 5 after immunization", "type": "in vivo", "details": "10 mg/kg once daily, vs methylcellulose", "description": "as §1, with “At day 5 after immunization, blood samples were taken for measurement of GLP1 levels. […] To monitor disease progression, animals” for “Animals”, “scored daily” for “scored”"}, "[2]": {"test_system": "lymphocytes, monocytes, CD4+, CD8+, CD19+ and Ter119+ cells", "test": "immune cell populations in EAE animals by FACS", "type": "in vivo, mice", "details": "spleen, day 5; exendin-4 1 mg/kg or dexamethasone 4 mg/kg daily"}, "[3]": {"test_system": "IL-17+ and IFN-γ+ cells (Th17 and Th1)", "test": "IL-17+ and IFN-γ+ CD4 cells in inguinal lymph nodes by FACS", "type": "in vivo, mice", "details": "inguinal lymph node; exendin-4 1 mg/kg or dexamethasone 4 mg/kg daily; day 5 or 7"}, "thymocytes": {"test_system": "thymocytes", "test": "CD4, CD8 double positive thymocytes in naïve and EAE animals (Table 5)", "type": "in vivo, mice", "details": "exendin-4 1 mg/kg or dexamethasone 4 mg/kg, day 6", "description": "EAE was induced in 8 week old C57B1/6 mice by subcutaneous injections of MOG/CFA followed by i.p. injection of pertussis toxin. […] Dexamethasone is known to cause T cell death. On day 6 after immunization, thymi were harvested. Thymocytes were isolated, stained with anti-CD4 and anti-CD8 antibodies and analyzed by flow cytometry."}},
  "data": [
    {"smiles": "N[C@@H](CC(=O)N1CCn2c(nnc2C(F)(F)F)C1)Cc1cc(F)c(F)cc1F", "note": "[sitagliptin]", "values": [
      {"measurement": "disease score from day 18 to day 20", "setting": "[1]; 10 mg/kg once daily, vs methylcellulose", "value": "significantly lower"},
      {"measurement": "morbidity (EAE clinical score)", "setting": "[1]; once daily day 0 to day 28, exendin-4 1 mg/kg, sitagliptin 1 or 10 mg/kg, vs methylcellulose, FIG. 18", "value": "significantly reduced morbidity"},
      {"measurement": "EAE progression / disease symptoms", "setting": "[1]; once daily day 0 to day 28, exendin-4 1 mg/kg, sitagliptin either 1 mg/kg or 10 mg/kg, FIG. 18", "value": "trend towards attenuating disease symptoms"},
      {"measurement": "glucose levels after oral glucose challenge", "setting": "glucose and GLP-1 levels; 1 mg/kg or 10 mg/kg oral, not statistically significant by two-way ANOVA", "value": "trend toward lower glucose levels"},
      {"measurement": "blood GLP-1 levels 20 minutes after oral glucose challenge", "setting": "glucose and GLP-1 levels; either dose (1 mg/kg or 10 mg/kg oral)", "value": "significantly increased blood GLP-1 levels"},
      {"measurement": "GLP-1 levels at day 5 after immunization", "setting": "GLP-1 levels", "value": "significantly higher GLP-1 levels"}
    ]},
    {"smiles": "C[C@@H]1C[C@H]2[C@@H]3CCC4=CC(=O)C=C[C@]4(C)[C@@]3(F)[C@@H](O)C[C@]2(C)[C@@]1(O)C(=O)CO", "note": "[dexamethasone]", "values": [
      {"measurement": "reduction of Ter119+ cells in EAE animals", "setting": "[2]", "value": "20-25%"},
      {"measurement": "reduction of IL-17+ cells in EAE animals", "setting": "[3]", "value": 50, "unit": "%"},
      {"measurement": "% CD4, CD8 double positive cells", "setting": "thymocytes; EAE mice", "value": "1.5±0.5", "unit": "%"},
      {"measurement": "% CD4, CD8 double positive cells", "setting": "thymocytes; Naïve mice", "value": "12.4±3.3", "unit": "%"}
    ]}
  ]
}
